According to the supplement of paper PMC10307832:

How the values were obtained:
Assay in all cases: relative viability (nuclei count vs DMSO), 5 days (fraction); higher = more cells survive
NCI-H1792 = tested on: NCI-H1792
Method in brief: (§1)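 Lung cancer cell lines were pin-tool dosed in 1536-well plates on the day after seeding, with either a lone drug or a fixed anchor-drug dose plus five library-drug doses (not always all listed) in √10 steps. Nuclei were counted on 4× images after 5 days. Relative viability is the ratio of treated-well to vehicle-well nuclei counts, with each value a median of duplicate plates.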

NCI-H661 = tested on: NCI-H661
Method in brief: as §1

UMC-11 = tested on: UMC-11
Method in brief: as §1

CAL-12T = tested on: CAL-12T
Method in brief: as §1

H3255 = tested on: H3255
Method in brief: as §1

NCI-H23 = tested on: NCI-H23
Method in brief: as §1

NCI-H2087 = tested on: NCI-H2087
Method in brief: as §1

NCI-H1395 = tested on: NCI-H1395
Method in brief: as §1

A-427 = tested on: A-427
Method in brief: as §1

NCI-H322M = tested on: NCI-H322M
Method in brief: as §1

LK-2 = tested on: LK-2
Method in brief: as §1

NCI-H1355 = tested on: NCI-H1355
Method in brief: as §1

NCI-H1666 = tested on: NCI-H1666
Method in brief: as §1

NCI-H2228 = tested on: NCI-H2228
Method in brief: as §1

NCI-H1651 = tested on: NCI-H1651
Method in brief: as §1

LCLC-103H = tested on: LCLC-103H
Method in brief: as §1

NCI-H838 = tested on: NCI-H838
Method in brief: as §1

NCI-H358 = tested on: NCI-H358
Method in brief: as §1

PC-14 = tested on: PC-14
Method in brief: as §1

NCI-H2085 = tested on: NCI-H2085
Method in brief: as §1

COCC1(CO)C(=O)C2CCN1CC2 (stereo not given) [PRIMA-1MET] + CC(=O)Nc1cccc(-n2c(=O)n(C3CC3)c(=O)c3c(Nc4ccc(I)cc4F)n(C)c(=O)c(C)c32)c1 [Trametinib] (partner 0.02 µM)
relative viability (NCI-H1792; first compound 0.2 µM): 0.413 | relative viability (NCI-H1792; first compound 6.325 µM): 0.434 | relative viability (NCI-H1792; first compound 20 µM): 0.54 | relative viability (NCI-H661; first compound 0.2 µM): 0.506 | relative viability (NCI-H661; first compound 0.6325 µM): 0.492 | relative viability (NCI-H661; first compound 2 µM): 0.547 | relative viability (NCI-H661; first compound 6.325 µM): 0.552 | relative viability (NCI-H661; first compound 20 µM): 0.503 | relative viability (UMC-11; first compound 0.2 µM): 0.705 | relative viability (UMC-11; first compound 0.6325 µM): 0.569 | relative viability (UMC-11; first compound 2 µM): 0.513 | relative viability (UMC-11; first compound 6.325 µM): 0.817 | relative viability (UMC-11; first compound 20 µM): 0.749 | relative viability (CAL-12T; first compound 0.2 µM): 0.274 | relative viability (CAL-12T; first compound 0.6325 µM): 0.319 | relative viability (CAL-12T; first compound 2 µM): 0.313 | relative viability (CAL-12T; first compound 6.325 µM): 0.235 | relative viability (CAL-12T; first compound 20 µM): 0.15 | relative viability (H3255; first compound 0.2 µM): 0.51 | relative viability (H3255; first compound 0.6325 µM): 0.625 | relative viability (H3255; first compound 2 µM): 0.57 | relative viability (H3255; first compound 6.325 µM): 0.575 | relative viability (H3255; first compound 20 µM): 0.55 | relative viability (NCI-H23; first compound 0.2 µM): 0.281 | relative viability (NCI-H23; first compound 0.6325 µM): 0.37 | relative viability (NCI-H23; first compound 2 µM): 0.273 | relative viability (NCI-H23; first compound 6.325 µM): 0.328 | relative viability (NCI-H23; first compound 20 µM): 0.112 | relative viability (NCI-H2087; first compound 0.6325 µM): 0.185 | relative viability (NCI-H2087; first compound 2 µM): 0.19 | relative viability (NCI-H2087; first compound 6.325 µM): 0.168 | relative viability (NCI-H2087; first compound 20 µM): 0.117 | relative viability (NCI-H1395; first compound 0.2 µM): 1.14 | relative viability (NCI-H1395; first compound 2 µM): 0.979 | relative viability (NCI-H1395; first compound 6.325 µM): 1.02 | relative viability (NCI-H1395; first compound 20 µM): 1.05 | relative viability (A-427; first compound 0.2 µM): 0.533 | relative viability (A-427; first compound 0.6325 µM): 0.585 | relative viability (A-427; first compound 2 µM): 0.786 | relative viability (A-427; first compound 6.325 µM): 0.692 | relative viability (A-427; first compound 20 µM): 0.785 | relative viability (NCI-H322M; first compound 0.2 µM): 0.484 | relative viability (NCI-H322M; first compound 0.6325 µM): 0.467 | relative viability (NCI-H322M; first compound 6.325 µM): 0.468 | relative viability (NCI-H322M; first compound 20 µM): 0.45 | relative viability (LK-2; first compound 0.2 µM): 0.477 | relative viability (LK-2; first compound 0.6325 µM): 0.766 | relative viability (LK-2; first compound 2 µM): 0.357 | relative viability (LK-2; first compound 6.325 µM): 0.455 | relative viability (LK-2; first compound 20 µM): 0.199 | relative viability (NCI-H1355; first compound 0.2 µM): 0.393 | relative viability (NCI-H1355; first compound 0.6325 µM): 0.462 | relative viability (NCI-H1355; first compound 2 µM): 0.444 | relative viability (NCI-H1355; first compound 6.325 µM): 0.427 | relative viability (NCI-H1355; first compound 20 µM): 0.428 | relative viability (NCI-H1666; first compound 0.2 µM): 0.886 | relative viability (NCI-H1666; first compound 0.6325 µM): 0.815 | relative viability (NCI-H1666; first compound 2 µM): 0.965 | relative viability (NCI-H1666; first compound 6.325 µM): 0.759 | relative viability (NCI-H1666; first compound 20 µM): 0.877 | relative viability (NCI-H2228; first compound 0.2 µM): 0.197 | relative viability (NCI-H2228; first compound 0.6325 µM): 0.371 | relative viability (NCI-H2228; first compound 2 µM): 0.822 | relative viability (NCI-H2228; first compound 6.325 µM): 0.335 | relative viability (NCI-H2228; first compound 20 µM): 0.0574 | relative viability (NCI-H1651; first compound 0.2 µM): 0.826 | relative viability (NCI-H1651; first compound 0.6325 µM): 0.562 | relative viability (NCI-H1651; first compound 2 µM): 0.842 | relative viability (NCI-H1651; first compound 6.325 µM): 0.849 | relative viability (NCI-H1651; first compound 20 µM): 0.848 | relative viability (LCLC-103H; first compound 0.2 µM): 0.675 | relative viability (LCLC-103H; first compound 0.6325 µM): 0.619 | relative viability (LCLC-103H; first compound 2 µM): 0.604 | relative viability (LCLC-103H; first compound 6.325 µM): 0.655 | relative viability (LCLC-103H; first compound 20 µM): 0.709 | relative viability (NCI-H838; first compound 0.2 µM): 0.55 | relative viability (NCI-H838; first compound 0.6325 µM): 0.523 | relative viability (NCI-H838; first compound 2 µM): 0.416 | relative viability (NCI-H838; first compound 6.325 µM): 0.553 | relative viability (NCI-H838; first compound 20 µM): 0.557 | relative viability (NCI-H358; first compound 0.2 µM): 0.137 | relative viability (NCI-H358; first compound 0.6325 µM): 0.134 | relative viability (NCI-H358; first compound 2 µM): 0.108 | relative viability (NCI-H358; first compound 6.325 µM): 0.108 | relative viability (NCI-H358; first compound 20 µM): 0.0807 | relative viability (PC-14; first compound 0.2 µM): 0.921 | relative viability (PC-14; first compound 0.6325 µM): 0.618 | relative viability (PC-14; first compound 2 µM): 0.97 | relative viability (PC-14; first compound 6.325 µM): 0.693 | relative viability (PC-14; first compound 20 µM): 0.615 | relative viability (NCI-H2085; first compound 0.2 µM): 0.618 | relative viability (NCI-H2085; first compound 0.6325 µM): 0.61 | relative viability (NCI-H2085; first compound 2 µM): 0.508 | relative viability (NCI-H2085; first compound 6.325 µM): 0.427 | relative viability (NCI-H2085; first compound 20 µM): 0.141
